Laboratory results published in patent US20120083464A1, “NEUROPROTECTIVE PROPERTIES OF 5'-METHYLTHIOADENOSINE” (priority 2009, published 2012).
“Also recorded” adds a separate entry of the source.

Assays:
[1] = tested on: mixed cultures of neurons and astrocytes obtained from the cerebral cortex; assay: Oxygen-glucose deprivation (simulated ischemia) in neuron-astrocyte co-cultures; type: cell-based, Sprague-Dawley rat
Excerpt: Primary neuron cultures were obtained from the cortical lobes of E18 Sprague-Dawley rat embryos according to previously described procedures (Cheung et al., 1998, Neuropharmacology 37:1419-1429). The cells were resuspended in B27 Neurobasal medium plus 10% FBS and then seeded in 24-well plates at 1-2×10^5 cells per well onto a monolayer of astrocytes which were previously prepared as described earlier (Vallejo-Illarramendi et al., 2005, Glia 50:276-279). One day later, the medium was replaced by B27-supplemented Neurobasal medium and 10% fetal bovine serum, and maintained at 37° C. and 5% CO2. Cultures were used 8-9 days after plating. Cultured neurons and astrocytes were identified using antibodies to microtubule associated protein-2 and glial fibrillary acidic protein, respectively.
Ischemic damage was induced by incubating cell cultures in a hyperbaric chamber for 1 hour in nitrogen-saturated buffer containing NaCl 130 mM, KCl 5.4 mM, CaCl2 0.1323 mM, […], MgCl2 0.8 mM, NaH2PO4 1.18 mM, 10 mM sucrose as a substitute of glucose, and the glyocolytic blocker iodoacetate (20 or 50 μM). After the insult, cells were incubated in normoxia, glucose added and iodoacetate removed for an additional period of 24 hours. […] The results are expressed as the mean±SEM of at least four independent experiments performed in triplicate.

PC12 cells = assay: Neurite differentiation assay in PC12 cells; type: cell-based, rat
Experimental: The PC12 cells were maintained in HAM's medium at 37° C., supplemented with 2.5% of fetal bovine serum, 15% of horse serum and penicillin/streptomycine. The neurite differentiation assays were conducted using 24-well plates treated with collagen in HAM's medium supplemented with 0.5% of fetal bovine serum and penicillin/streptomycine. NGF (100 ng/ml) or MTA at different concentrations (25 μM, 100 μM and 2 mM) were added to the cultures and, after four days, the percentage of cells with neurites longer than twice cell body. In each experiment a minimum of 300 cells were randomly counted.

[2] = tested on: rats after focal ischemia (MCAO); type: in vivo

`CSC[C@H]1O[C@@H](n2cnc3c(N)ncnc32)[C@H](O)[C@@H]1O` [MTA, 5′-methylthioadenosine] was tested, and the “protection from OGD-induced damage compared with APV (50 μM)” value ([1]; MTA at 10 μM) was “even more protective than APV”, the “protection from OGD (ischemia)-induced damage” value ([1]; OGD 1 hour with IAA at 20 or 50 μM, both conditions, assayed 24 hours later) was “highly protective” and the “neurite development at the highest concentration tested” value (PC12 cells; MTA 5 mM) was “does not affect neurite development”. The “most optimal MTA concentration for formation of new neurites” value (PC12 cells; four days) was 1 mM, the “neurite differentiation (formation of new processes)” value (PC12 cells; four days, concentration dependent) was “develop new processes” and the “damaged area (TTC staining) versus vehicle” value ([2]; MTA 30 mg/kg i.p. twice daily from 30 min after onset of ischemia, 3 days of reperfusion) was “did not show a reduction; also recorded: does not protect”. For the same compound, the “toxicity to rats after ischemia” value ([2]; MTA 100 mg/kg i.p. twice daily) was “toxic”.
